Read-outs that look alike come from different tables or passages of the source.
Key:
ATX = ATX (Homo sapiens (Human), UniProt Q13822); assay: ATX enzyme inhibition assay (Amplex UltraRed/choline oxidase/HRP, 16:0 Lyso PC substrate); format: biochemical
Description: All compounds were prepared as a 10 mM DMSO stock solution.
Solutions at pH 8.5 and pH 7.5 were prepared respectively with the following formulations:
All compounds, including the positive control compound, were diluted 5-fold from 10 mM to 2 mM with DMSO in the first step. The mixture was then diluted to 100 μM with 1× assay buffer.
3. Separate Detection of Compounds with 1× Assay Buffer at Two pH Values:
a) 5 μL of 10× compound diluent was added to a 384-well plate (Greiner 781209) using a motorized pipette (see the “experimental preparation” step). 5 μL of 1× assay buffer containing 5% DMSO was added to both negative and positive control wells. The plate was centrifuged at 300 rpm for 1 minute at room temperature.
b) 2× ATX ([…]) was prepared with 1× assay buffer, and 25 μL of 2× ATX was added to the plate using a motorized pipette. 25 μL of 1× assay buffer was added to the negative control wells and 25 μL of 2× ATX was added to the positive control wells. The plate was centrifuged at 300 rpm for 1 minute at room temperature.
The plate was incubated at room temperature for 10 minutes.
c) 2.5× working solution containing Amplex UltraRed reagent (125 μM), HRP (2.5 U/mL), choline oxidase (1.25 U/mL), and 16:0 Lyso PC (75 μM) was prepared with 1× assay buffer. 20 μL of 2.5× working solution was added to all reaction wells using a motorized pipette. The plate was centrifuged at 300 rpm for 1 minute at room temperature.
d) The plate was detected by SpectraMax with the following procedures: fluorescence mode; excitation at 550 nm; emission at 590 nm; kinetics; read once every 2 minutes; read continuously for 60 minutes.
The calculation formula of % inhibition (i.e., % inhibition rate) was as follows: […]
V0: X-axis is taken as 0 to 30 minutes, Y-axis is taken as fluorescence readings, and the slope corresponding to the straight line fitted by the software GraphPad Prism 8 is the initial response rate.
V0max: Average V0 of the positive control wells in the plate.
V0min: Average V0 of the negative control wells in the plate.
The IC50 of the compounds was calculated from a nonlinear regression line (dose-initial response rate) fitted by % inhibition and log value of compound concentration using the software GrahPad Prism 8.

[1] = system: plasma LPA 18:1 and LPA 18:2; assay: Human plasma ex vivo assay (LPA 18:1 / 18:2 by LC-MS/MS); format: biochemical; conditions: 37° C., 2 hours
Description: The collected plasma was centrifuged at 4000 rpm for 15 minutes at 4° C. The supernatant was aliquoted into a 96-well plate (25 μL per well), sealed, and frozen at −80° C. for further use.
LPA 17:0 powder was dissolved in a mixed solution of water: isopropanol: formic acid (1:1:1) to a final concentration of […]. The mixture was aliquoted and frozen at −20° C.
1 volume of formic acid was added to 1000× methanol, mixed well, and stored at 4° C. a) The 96-well plate containing frozen plasma was removed from the −80° C. freezer and thawed on ice at room temperature. b) 6 μL of 50× LPA 17:0 (internal standard) and 264 μL of 0.1% FA were added to a clean well of the 96-well plate; the final concentration of LPA 17:0 (internal standard) was 50 nM. c) 6× compound was 1:3 serially diluted to a total of 8 concentrations, and 5 μL of the compound per well was added to the 96-well plate containing plasma. The maximum final concentration of the compound was 10 μM, and the final concentration of DMSO was 0.1%. The plate was centrifuged at 300 rpm for 30 seconds. The DMSO control sample reacted for 0 hours was used as the minimum value (Min), and the DMSO control sample reacted for 2 hours was used as the maximum value (Max). […]
d) The DMSO sample reacted for 0 hours was rapidly transferred to 0.1% FA solution containing the internal standard in step b) to terminate the reaction and precipitate plasma proteins. e) The 96-well plate containing plasma and compounds was rapidly incubated in a 37° C. incubator for 2 hours. After the incubation, 6 μL of 10× LPA 17:0 and 264 μL of 0.1% FA were added to each well to terminate the reaction and precipitate plasma proteins. […]
f) All the samples were mixed well with a pipette, and centrifuged at 4000 rpm for 10 minutes at 4° C. 150 μL of the supernatant was added to a 96-well U-bottom plate (Thermo 267245), sealed with silica gel, and then loaded. The contents of LPA 18:1 and LPA 18:2 in the samples were detected by LC-MS/MS system.
LPA 18:1(or 18:2) relative content=LPA 18:1(or 18:2) peak area/LPA 17:0 peak area Percentage reduction (%) in plasma LPA18:1(or 18:2)=(Max−X)/(Max−Min)*100 Max: LPA 18:1 (or 18:2) relative content of the DMSO sample reacted for 2 hours Min: LPA 18:1 (or 18:2) relative content of the DMSO sample reacted for 0 hours X: LPA 18:1 (or 18:2) relative content of the sample after compound treatment for 2 hours The IC50 of the compounds was calculated by fitting a nonlinear regression through percentage reduction in plasma LPA 18:1 (or 18:2) and log value of compound concentration using the software GraphPad Prism 8.
Y=Bottom+(Top−Bottom)/(1+10^((Log IC50−X)*Hill Slope))

[2] = assay buffer pH 8.5, read-out: IC50 (nM) pH 8.5
[3] = LPA 18:1, read-out: Human plasma ex vivo assay IC50 (18:1 LPA)
[4] = LPA 18:2, read-out: Human plasma ex vivo assay IC50 (18:2 LPA)
[5] = assay buffer pH 7.5, read-out: IC50 (nM) pH 7.5

Compound	IC50 (ATX; [2]) [nM]	IC50 [1, 3] [nM]	IC50 [1, 4] [nM]	IC50 (ATX; [5]) [nM]
C[C@@H]1CN(CC(=O)N2CC(O)C2)CCN1c1cc(F)c2nc3c(c(N(C)c4nc(-c5ccc(F)cc5)c(C#N)s4)c2c1)CC[C@H]3O (single isomer, unassigned) [Example E6-b]	14	387	431	–
C[C@H]1CN(CC(=O)N2CC(O)C2)CCN1c1cc(F)c2nc3c(c(N(C)c4nc(-c5ccc(F)cc5)c(C#N)s4)c2c1)CC[C@@H]3O (single isomer, unassigned) [Example E7-a]	15.2	369	351	–
C[C@H]1CN(c2cc(F)c3nc4c(c(N(C)c5nc(-c6ccc(F)cc6)c(C#N)s5)c3c2)CC[C@@H]4O)CCN1CC(=O)N1CC(O)C1 (single isomer, unassigned) [Example E8-a]	22.5	280	324	–
C[C@@H]1CN(c2cc(F)c3nc4c(c(N(C)c5nc(-c6ccc(F)cc6)c(C#N)s5)c3c2)CC[C@@H]4O)CCN1CC(=O)N1CC(O)C1 (single isomer, unassigned) [Example E9-a]	21.5	464	392	–
C[C@@H]1CN(c2cc(F)c3nc4c(c(N(C)c5nc(-c6ccc(F)cc6)c(C#N)s5)c3c2)CC[C@H]4O)CCN1CC(=O)N1CC(O)C1 (single isomer, unassigned) [Example E9-b]	18.4	209	199	–
CN(c1nc(-c2ccc(F)cc2)c(C#N)s1)c1c2c(nc3c(F)cc(N4CCN(CC(=O)N5CC(C)(O)C5)CC4)cc13)[C@@H](O)CC2 (single isomer, unassigned) [Example E10-a]	17.9	384	430	–
CN(c1nc(-c2ccc(F)cc2)c(C#N)s1)c1c2c(nc3c(F)cc(N4CCN(CC(=O)N5CC(C)(O)C5)CC4)cc13)[C@H](O)CC2 (single isomer, unassigned) [Example E10-b]	14.4	263	261	–
CN(c1nc(-c2ccc(F)cc2)c(C#N)s1)c1c2c(nc3c(F)cc(N4CC5(CN(C(=O)[C@@H]6CCOC6)C5)C4)cc13)[C@@H](O)CC2 (single isomer, unassigned) [Example E13-a]	19.8	385	385	–
CN(c1nc(-c2ccc(F)cc2)c(C#N)s1)c1c2c(nc3c(F)cc(N4CC5(CN(C(=O)C6(O)CCOCC6)C5)C4)cc13)[C@@H](O)CC2 (single isomer, unassigned) [Example E15-a]	14.9	392	388	–
CN(c1nc(-c2ccc(F)cc2)c(C#N)s1)c1c2c(nc3c(F)cc(N4CC5(CN(C(=O)[C@]6(O)CCOC6)C5)C4)cc13)[C@H](O)CC2 (single isomer, unassigned) [Example E19-1a]	22.9	207	362	–
CN(c1nc(-c2ccc(F)cc2)c(C#N)s1)c1c2c(nc3c(F)cc(N4CC5(CN(C(=O)[C@]6(O)CCOC6)C5)C4)cc13)[C@@H](O)CC2 (single isomer, unassigned) [Example E19-1b]	27.2	218	479	–
CN(c1nc(-c2ccc(F)cc2)c(C#N)s1)c1c2c(nc3c(F)cc(N4CC5(CN(C(=O)[C@@]6(O)CCOC6)C5)C4)cc13)[C@@H](O)CC2 (single isomer, unassigned) [Example E19-2a]	26.7	207	203	–
CN(c1nc(-c2ccc(F)cc2)c(C#N)s1)c1c2c(nc3c(F)cc(N4CC5(CN(C(=O)[C@@]6(O)CCOC6)C5)C4)cc13)[C@@H](O)CC2 (single isomer, unassigned) [Example E19-2b]	334	113	310	–
CN(c1nc(-c2ccc(F)cc2)c(C#N)s1)c1c2c(nc3ccc(N4CCN(CC(=O)N5CC(O)C5)CC4)cc13)CCC2 [Example A1]	27.7	183	196	138
CN(c1nc(-c2ccc(F)cc2)c(C#N)s1)c1c2c(nc3ccc(N4CCN(CC(=O)N5CC(O)C5)CC4)cc13)COC2 [Example A2]	96.7	85	73.5	624
CN(c1nc(-c2ccc(F)cc2)c(C#N)s1)c1c2c(nc3ccc(N4CCN(CC(=O)N5CC(O)C5)CC4)cc13)CCO2 [Example A3]	27.8	109	103	214
CN(c1nc(-c2ccc(F)cc2)c(C#N)s1)c1c2c(nc3c(F)cc(N4CCN(CC(=O)N5CC(O)C5)CC4)cc13)CCC2 [Example A4]	52.1	160	176	174
CN(c1nc(-c2ccc(F)cc2)c(C#N)s1)c1c2c(nc3c(F)cc(N4CCN(CC(=O)N5CC(CO)C5)CC4)cc13)CCC2 [Example A5]	32.8	200	239	112
CN(c1nc(-c2ccc(F)cc2)c(C#N)s1)c1c2c(nc3c(F)cc(N4CCC5(CC4)CN(CC(=O)N4CC(O)C4)C5)cc13)CCC2 [Example A6]	44.7	182	184	318
CN(c1nc(-c2ccc(F)cc2)c(C#N)s1)c1c2c(nc3ccc(N4CCN(CC(=O)N5CC(O)C5)CC4)cc13)CC2 [Example A7]	22.2	74.2	72.7	85.1
CN(c1nc(-c2ccc(F)cc2)c(C#N)s1)c1c2c(nc3cc(F)c(N4CCN(CC(=O)N5CC(O)C5)CC4)cc13)CCC2 [Example A8]	64	248	271	883
CN(c1nc(-c2ccc(F)cc2)c(C#N)s1)c1c2c(nc3c(F)cc(N4CC5(CN(CC(=O)N6CC(O)C6)C5)C4)cc13)CCC2 [Example A9]	86.8	351	323	699
CN(c1nc(-c2ccc(F)cc2)c(C#N)s1)c1c2c(nc3c(F)cc(N4CCN(CC(=O)N5CC6(CCOCC6)C5)CC4)cc13)CC2 [Example F3]	60.6	–	–	–
CN(c1nc(-c2ccc(F)cc2)c(C#N)s1)c1c2c(nc3c(F)cc(N4CCN(CC(=O)N5CC6(CCS(=O)(=O)CC6)C5)CC4)cc13)CC2 [Example F4]	19.6	–	–	–
CN(c1nc(-c2ccc(F)cc2)c(C#N)s1)c1c2c(nc3c(F)cc(N4CCN(CC(=O)N5CC6(CCC(O)CC6)C5)CC4)cc13)CC2 [Example F5]	19.9	–	–	–
